The text below walks through data of US11149037B2, “Pyrazole MAGL inhibitors” (H. Lundbeck A/S, priority 2017, dated 2021).

Where only a bound is given, the exact number is not on record here.

Broadly, the IC50 is the midpoint of a concentration-inhibition curve. High values mean weaker potency in that assay, low ones greater potency in that assay.

What all share (format): biochemical
In test [1] the target is FAAH (Homo sapiens (Human), UniProt O00519). Nature of the test: In vitro competitive activity-based protein profiling, human proteomes (prefrontal cortex or PC3 cell membrane fractions). The conditions noted are these: human proteome; for inhibition at 1 µM: read-out: FAAH % inh. 1 μM (human). Put shortly: (§1)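 Activity of MAGL and FAAH was quantified from fluorescent gel band intensities. Beforehand, inhibitors at several concentrations competed against subsequent probe labelling (FP-Rh, JW912 or HT-01) in species-matched proteomes, each step 30 min at 37° C.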
Sequence of FAAH (Homo sapiens (Human), UniProt O00519) (O00519 whole entry): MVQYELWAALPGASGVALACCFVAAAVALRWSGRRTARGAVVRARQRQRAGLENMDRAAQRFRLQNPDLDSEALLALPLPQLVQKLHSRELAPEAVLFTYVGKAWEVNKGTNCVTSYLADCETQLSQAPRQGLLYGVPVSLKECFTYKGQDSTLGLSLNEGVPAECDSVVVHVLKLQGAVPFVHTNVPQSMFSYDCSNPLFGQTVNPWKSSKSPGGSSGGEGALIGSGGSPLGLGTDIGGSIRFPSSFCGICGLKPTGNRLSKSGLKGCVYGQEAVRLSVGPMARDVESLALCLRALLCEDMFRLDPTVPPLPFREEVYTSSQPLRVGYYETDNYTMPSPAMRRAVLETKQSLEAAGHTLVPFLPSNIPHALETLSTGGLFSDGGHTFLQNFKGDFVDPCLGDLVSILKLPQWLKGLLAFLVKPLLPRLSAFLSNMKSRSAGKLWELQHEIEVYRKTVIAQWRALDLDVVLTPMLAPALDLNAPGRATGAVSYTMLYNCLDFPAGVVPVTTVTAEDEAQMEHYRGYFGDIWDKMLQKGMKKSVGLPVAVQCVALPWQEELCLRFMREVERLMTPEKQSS

The target in test [2] is MAGL (Homo sapiens (Human), UniProt Q99685). Described as above. The conditions noted are these: human proteome; for inhibition at 1 µM: read-out: MAGL % inh. 1 μM (human). Put shortly:
as §1

Test [3] deals with FAAH (Mus musculus (Mouse), UniProt O08914). Nature of the test: In vitro competitive activity-based protein profiling, mouse proteomes (brain membrane fraction or cell lysates). The settings on record: mouse proteome, read-out: FAAH % inh. 1 μM (mouse). In outline: as §1
Sequence of FAAH (Mus musculus (Mouse), UniProt O08914) (O08914 whole entry): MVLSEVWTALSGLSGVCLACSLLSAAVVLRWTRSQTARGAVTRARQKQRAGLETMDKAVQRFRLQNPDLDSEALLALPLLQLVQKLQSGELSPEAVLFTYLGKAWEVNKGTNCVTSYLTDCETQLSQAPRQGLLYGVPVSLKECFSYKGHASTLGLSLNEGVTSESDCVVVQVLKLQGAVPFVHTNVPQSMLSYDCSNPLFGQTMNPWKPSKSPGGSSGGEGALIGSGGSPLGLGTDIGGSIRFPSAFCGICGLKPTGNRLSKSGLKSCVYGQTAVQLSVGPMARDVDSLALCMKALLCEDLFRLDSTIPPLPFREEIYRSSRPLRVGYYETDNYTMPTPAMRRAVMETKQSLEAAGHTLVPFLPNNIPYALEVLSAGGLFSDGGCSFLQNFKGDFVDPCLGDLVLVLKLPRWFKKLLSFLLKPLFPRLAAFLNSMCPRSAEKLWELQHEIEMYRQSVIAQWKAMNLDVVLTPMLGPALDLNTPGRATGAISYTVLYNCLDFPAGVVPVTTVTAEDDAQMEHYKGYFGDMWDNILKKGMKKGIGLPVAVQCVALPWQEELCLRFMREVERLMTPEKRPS
The target in test [4] is MAGL (Mus musculus (Mouse), UniProt O35678). The test is described as above. The conditions noted are these: mouse proteome, read-out: MAGL % inh. 1 μM (mouse). Put shortly:
as §1

Sequence of MAGL (Homo sapiens (Human), UniProt Q99685) (Q99685 whole entry): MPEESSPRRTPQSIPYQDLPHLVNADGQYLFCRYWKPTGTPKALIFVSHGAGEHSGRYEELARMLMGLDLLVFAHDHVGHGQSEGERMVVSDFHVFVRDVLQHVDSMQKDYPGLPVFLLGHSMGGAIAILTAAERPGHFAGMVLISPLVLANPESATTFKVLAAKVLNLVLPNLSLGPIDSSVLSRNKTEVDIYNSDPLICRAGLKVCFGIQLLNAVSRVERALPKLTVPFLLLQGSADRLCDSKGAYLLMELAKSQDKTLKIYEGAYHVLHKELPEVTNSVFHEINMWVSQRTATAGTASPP
Sequence of MAGL (Mus musculus (Mouse), UniProt O35678) (O35678 whole entry): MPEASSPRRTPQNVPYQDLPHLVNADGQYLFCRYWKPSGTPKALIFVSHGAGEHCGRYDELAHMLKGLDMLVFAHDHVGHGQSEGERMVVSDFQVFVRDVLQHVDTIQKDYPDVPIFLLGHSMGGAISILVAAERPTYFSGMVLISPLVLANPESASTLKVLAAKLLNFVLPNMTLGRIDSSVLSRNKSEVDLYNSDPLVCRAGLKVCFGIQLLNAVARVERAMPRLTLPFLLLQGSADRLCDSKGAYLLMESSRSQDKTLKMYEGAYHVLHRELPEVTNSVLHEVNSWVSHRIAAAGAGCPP

Consider `CS(=O)(=O)Nc1ccn(C(=O)N2CCC3(CCN(Cc4cc(N5CCCC5)cc(C(F)(F)F)c4)C3)CC2)n1` [Example 64, N-(1-(2-(3-(Pyrrolidin-1-yl)-5-(trifluoromethyl)benzyl)-2,8-diazaspiro[4.5]decane-8-carbonyl)-1H-pyrazol-3-yl)methanesulfonamide], for which the inhibition at 1 µM in test [1] is 0 to 25%; in test [2], above 75%; in test [3], 0 to 25%; in test [4], above 75%.
With `Cc1c(CN2CCN(C(=O)n3ccc(NS(C)(=O)=O)n3)CC2)[nH]c2c(Cl)cccc12` [Example 65, N-(1-(4-((7-Chloro-3-methyl-1H-indol-2-yl)methyl)piperazine-1-carbonyl)-1H-pyrazol-3-yl)methanesulfonamide], the inhibition at 1 µM in test [1] was 0 to 25%; in test [2], above 75%; in test [3], 0 to 25%; in test [4] it was above 75%.
For the compound `CS(=O)(=O)Nc1ccn(C(=O)N2CCN(Cc3cc4cc(Cl)ccc4s3)CC2)n1` [Example 66, N-(1-(4-((5-Chlorobenzo[b]thiophen-2-yl)methyl)piperazine-1-carbonyl)-1H-pyrazol-3-yl)methanesulfonamide], the inhibition at 1 µM is 0 to 25% in test [1], above 75% in test [2], 0 to 25% in test [3] and above 75% in test [4].
On to `CS(=O)(=O)Nc1ccn(C(=O)N2CCN(Cc3cc4c(Cl)cccc4s3)CC2)n1` [Example 67, N-(1-(4-((4-Chlorobenzo[b]thiophen-2-yl)methyl)piperazine-1-carbonyl)-1H-pyrazol-3-yl)methanesulfonamide], for which the inhibition at 1 µM in test [1] is 25 to 50%; in test [2], above 75%; in test [3] it was 25 to 50%; in test [4], above 75%.
As for `CS(=O)(=O)Nc1ccn(C(=O)N2CCC3(CCN(Cc4cc(Cl)cc(N5CCCC5)c4)C3)CC2)n1` [Example 68, N-(1-(2-(3-Chloro-5-(pyrrolidin-1-yl)benzyl)-2,8-diazaspiro[4.5]decane-8-carbonyl)-1H-pyrazol-3-yl)methanesulfonamide], the inhibition at 1 µM in test [1] was 0 to 25%; in test [2] it was above 75%; in test [3], 0 to 25%; in test [4], above 75%.
Consider `C#Cc1ccc(CN2CCN(C(=O)n3ccc(NS(C)(=O)=O)n3)CC2)cc1` [Example 69, N-(1-(4-(4-Ethynylbenzyl)piperazine-1-carbonyl)-1H-pyrazol-3-yl)methanesulfonamide], for which the inhibition at 1 µM in test [1], in test [3] and in test [4] was 0 to 25% throughout. For the same compound, the inhibition at 10 µM in test [2] (10 μM, read-out: MAGL % inh. (human) @ 10 μM) is above 75%.
Consider `CS(=O)(=O)Nc1ccn(C(=O)N2CCN(Cc3sc4ccccc4c3Cl)CC2)n1` [Example 70, N-(1-(4-((3-Chlorobenzo[b]thiophen-2-yl)methyl)piperazine-1-carbonyl)-1H-pyrazol-3-yl)methanesulfonamide], for which the inhibition at 1 µM was 0 to 25% in test [1], above 75% in test [2], 0 to 25% in test [3] and above 75% in test [4].
Consider `CS(=O)(=O)Nc1ccn(C(=O)N2CCC3(CCN(Cc4ccc(N5CCCC5)c(C(F)(F)F)c4)C3)CC2)n1` [Example 72, N-(1-(2-(4-(Pyrrolidin-1-yl)-3-(trifluoromethyl)benzyl)-2,8-diazaspiro[4.5]decane-8-carbonyl)-1H-pyrazol-3-yl)methanesulfonamide], for which the inhibition at 1 µM in test [1] is 0 to 25%; in test [2] it was above 75%; in test [3], 50 to 75%; in test [4] it was 25 to 50%.
The like results for `CS(=O)(=O)Nc1ccn(C(=O)N2CCC3(CCN(Cc4ccc(C(F)(F)F)c(N5CCCC5)c4)C3)CC2)n1` [Example 73, N-(1-(2-(3-(Pyrrolidin-1-yl)-4-(trifluoromethyl)benzyl)-2,8-diazaspiro[4.5]decane-8-carbonyl)-1H-pyrazol-3-yl)methanesulfonamide] were, in that order, 0 to 25%, above 75%, 50 to 75% and above 75%.
Turning to `CS(=O)(=O)Nc1ccn(C(=O)N2CCC3(CCN(Cc4ccc(C(F)(F)F)cc4N4C5CCC4COC5)C3)CC2)n1` [Example 74, N-(1-(2-(2-(3-Oxa-8-azabicyclo[3.2.1]octan-8-yl)-4-(trifluoromethyl)benzyl)-2,8-diazaspiro[4.5]decane-8-carbonyl)-1H-pyrazol-3-yl)methanesulfonamide], the inhibition at 1 µM in test [1] is 0 to 25%; in test [2], above 75%; in test [3], 0 to 25%; in test [4] it was above 75%. For the same compound, the IC50 in test [1] is 1 to 10 µM; in test [2], below 0.1 µM.
Turning to `CS(=O)(=O)Nc1ccn(C(=O)N2CCN(Cc3ccc(C(F)(F)F)cc3NCCC(=O)O)CC2)n1` [Example 77, 3-((2-((4-(3-(Methylsulfonamido)-1H-pyrazole-1-carbonyl)piperazin-1-yl)methyl)-5-(trifluoromethyl)phenyl)amino)propanoic acid], the inhibition at 1 µM in test [1] was in the range of 0 to 25%; in test [2], 50 to 75%; in test [3], 0 to 25%; in test [4] it was 0 to 25%.
As for `CS(=O)(=O)Nc1ccn(C(=O)N2CC3CN(Cc4ccc(C(F)(F)F)cc4NCCCC(=O)O)CC3C2)n1` (stereo not shown) [Example 78, 4-((2-((5-(3-(Methylsulfonamido)-1H-pyrazole-1-carbonyl)hexahydropyrrolo[3,4-c]pyrrol-2(1H)-yl)methyl)-5-(trifluoromethyl)phenyl)amino)butanoic acid], the inhibition at 1 µM in test [1] is 0 to 25%; in test [2], above 75%; in test [3], 0 to 25%; in test [4], above 75%.
On to `CS(=O)(=O)Nc1ccn(C(=O)N2CCN(Cc3cccnc3N3CCCC3)CC2)n1` [Example 81, N-(1-(4-((2-(Pyrrolidin-1-yl)pyridin-3-yl)methyl)piperazine-1-carbonyl)-1H-pyrazol-3-yl)methanesulfonamide], for which the inhibition at 1 µM in test [1] is 0 to 25%; in test [2] it was above 75%; in test [3], 0 to 25%; in test [4], 50 to 75%.
As for `CS(=O)(=O)Nc1ccn(C(=O)N2CCN(Cc3ccncc3N3CCCC3)CC2)n1` [Example 82, N-(1-(4-((3-(Pyrrolidin-1-yl)pyridin-4-yl)methyl)piperazine-1-carbonyl)-1H-pyrazol-3-yl)methanesulfonamide], the inhibition at 1 µM in test [1] is 0 to 25%; in test [2] it was above 75%; in test [3], 0 to 25%; in test [4], 50 to 75%.
On to `Cc1cc(CN2CCCC23CCN(C(=O)n2ccc(NC(=O)C4CC4)n2)CC3)ccc1Cl` [Example 83, N-(1-(1-(4-Chloro-3-methylbenzyl)-1,8-diazaspiro[4.5]decane-8-carbonyl)-1H-pyrazol-3-yl)cyclopropanecarboxamide], for which the inhibition at 1 µM in test [1] was 0 to 25%; in test [2], above 75%; in test [3], 0 to 25%; in test [4] it was above 75%.
For `CC(=O)Nc1ccn(C(=O)N2CCC3(CCCN3C(=O)c3ccc(Cl)c(C)c3)CC2)n1` [Example 84, N-(1-(1-(4-Chloro-3-methylbenzoyl)-1,8-diazaspiro[4.5]decane-8-carbonyl)-1H-pyrazol-3-yl)acetamide], the inhibition at 1 µM is 0 to 25% in test [1], above 75% in test [2], 0 to 25% in test [3] and above 75% in test [4].
`CC(=O)Nc1ccn(C(=O)N2CCC3(CCCN3C(=O)c3ccc(C#N)c(C)c3)CC2)n1` [Example 85, N-(1-(1-(4-Cyano-3-methylbenzoyl)-1,8-diazaspiro[4.5]decane-8-carbonyl)-1H-pyrazol-3-yl)acetamide]: the inhibition at 1 µM in test [1] was 0 to 25%; in test [2], above 75%; in test [3], 0 to 25%; in test [4], above 75%.
As for `CS(=O)(=O)Nc1ccn(C(=O)N2CCN(Cc3ncccc3N3CCCC3)CC2)n1` [Example 86, N-(1-(4-((3-(Pyrrolidin-1-yl)pyridin-2-yl)methyl)piperazine-1-carbonyl)-1H-pyrazol-3-yl)methanesulfonamide], the inhibition at 1 µM in test [1] was 0 to 25%; in test [2], 25 to 50%; in test [3], 0 to 25%; in test [4], 25 to 50%.
`CC1CN(C(=O)n2ccc(NS(C)(=O)=O)n2)CCN1Cc1ccc(C(F)(F)F)cc1N1CCCC1` (stereo not shown) [Example 88, N-(1-(3-Methyl-4-(2-(pyrrolidin-1-yl)-4-(trifluoromethyl)benzyl)piperazine-1-carbonyl)-1H-pyrazol-3-yl)methanesulfonamide]: the inhibition at 1 µM is 0 to 25% in test [1], above 75% in test [2], 0 to 25% in test [3] and above 75% in test [4].
Take `CS(=O)(=O)Nc1ccn(C(=O)N2CCN(Cc3ccc(C(F)(F)F)cc3S(=O)(=O)C3CC3)CC2)n1` [Example 89, N-(1-(4-(2-(Cyclopropylsulfonyl)-4-(trifluoromethyl)benzyl)piperazine-1-carbonyl)-1H-pyrazol-3-yl)methanesulfonamide]: the inhibition at 1 µM in test [1] was 0 to 25%; in test [2] it was above 75%; in test [3], 0 to 25%; in test [4], above 75%.
